Measured values reported in BindingDB's records for PubMed 33316752 (University of Sharjah, 2021).

Molecular target: RAF proto-oncogene serine/threonine-protein kinase (Homo sapiens, UniProt P04049)
Assay: Inhibition of RAF1 (unknown origin) incubated for 40 mins by scintillation counting analysis

RAF proto-oncogene serine/threonine-protein kinase, sequence (P04049 whole entry): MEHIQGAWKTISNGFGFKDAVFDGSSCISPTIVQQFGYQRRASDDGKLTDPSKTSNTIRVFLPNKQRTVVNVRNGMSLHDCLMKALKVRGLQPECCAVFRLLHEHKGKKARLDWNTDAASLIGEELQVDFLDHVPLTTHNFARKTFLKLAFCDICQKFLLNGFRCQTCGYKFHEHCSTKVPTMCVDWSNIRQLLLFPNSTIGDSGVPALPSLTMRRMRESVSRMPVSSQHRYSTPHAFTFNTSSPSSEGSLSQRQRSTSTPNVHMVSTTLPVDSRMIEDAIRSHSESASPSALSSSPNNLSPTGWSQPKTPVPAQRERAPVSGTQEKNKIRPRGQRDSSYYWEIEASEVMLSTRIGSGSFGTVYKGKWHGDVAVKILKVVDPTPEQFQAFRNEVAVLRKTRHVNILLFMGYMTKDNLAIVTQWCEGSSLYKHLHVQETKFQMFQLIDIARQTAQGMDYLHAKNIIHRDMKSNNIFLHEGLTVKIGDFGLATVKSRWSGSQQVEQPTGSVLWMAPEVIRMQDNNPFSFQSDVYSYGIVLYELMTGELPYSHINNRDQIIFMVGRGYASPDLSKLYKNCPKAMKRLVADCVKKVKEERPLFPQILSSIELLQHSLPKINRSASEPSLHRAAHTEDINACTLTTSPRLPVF

IC50: 8.2 nM
Structure (SMILES): O=C(NCCNc1nccc(-c2c(-c3cccc(O)c3)nc3sccn23)n1)c1ccccc1
